# Assays:
# [1] = target: T1, Polyunsaturated fatty acid lipoxygenase ALOX15 (Oryctolagus cuniculus, UniProt P12530); test: biochemical; type: tissue-based, Reticulocytes; details: reticulocytes;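 note: inhibition of 15-lipoxygenase enzyme activity measured with linoleic acid as the substrate; in other assays of this panel Not Active means under 50% inhibition at 10 µM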
# T1 sequence (P12530 whole entry): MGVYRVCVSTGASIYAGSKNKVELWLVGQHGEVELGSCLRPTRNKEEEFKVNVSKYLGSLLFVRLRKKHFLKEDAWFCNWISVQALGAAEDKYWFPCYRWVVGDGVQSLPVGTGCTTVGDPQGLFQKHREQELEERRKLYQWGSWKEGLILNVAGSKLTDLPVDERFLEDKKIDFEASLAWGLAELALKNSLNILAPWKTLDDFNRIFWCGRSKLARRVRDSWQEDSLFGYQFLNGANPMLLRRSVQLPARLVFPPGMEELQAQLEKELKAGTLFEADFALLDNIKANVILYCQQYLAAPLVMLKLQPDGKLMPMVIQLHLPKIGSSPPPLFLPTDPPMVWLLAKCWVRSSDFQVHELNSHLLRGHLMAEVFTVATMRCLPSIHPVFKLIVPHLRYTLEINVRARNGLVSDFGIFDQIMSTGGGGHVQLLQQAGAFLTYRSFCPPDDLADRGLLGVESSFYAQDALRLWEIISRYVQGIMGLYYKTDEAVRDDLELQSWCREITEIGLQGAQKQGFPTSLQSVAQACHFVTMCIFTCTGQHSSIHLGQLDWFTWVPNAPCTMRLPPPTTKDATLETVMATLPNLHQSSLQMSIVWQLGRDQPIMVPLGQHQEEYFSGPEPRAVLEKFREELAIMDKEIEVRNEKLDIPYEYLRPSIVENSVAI
# [2] = target: Sodium-dependent dopamine transporter (Homo sapiens, UniProt Q01959); test: DRUGMATRIX: Dopamine Transporter radioligand binding (ligand: [125I] RTI-55); type: cell membranes, CHO-K1, Membrane; details: cho-k1, Not Active = under 50% inhibition at 10 µM
# Sodium-dependent dopamine transporter, sequence (Q01959 whole entry): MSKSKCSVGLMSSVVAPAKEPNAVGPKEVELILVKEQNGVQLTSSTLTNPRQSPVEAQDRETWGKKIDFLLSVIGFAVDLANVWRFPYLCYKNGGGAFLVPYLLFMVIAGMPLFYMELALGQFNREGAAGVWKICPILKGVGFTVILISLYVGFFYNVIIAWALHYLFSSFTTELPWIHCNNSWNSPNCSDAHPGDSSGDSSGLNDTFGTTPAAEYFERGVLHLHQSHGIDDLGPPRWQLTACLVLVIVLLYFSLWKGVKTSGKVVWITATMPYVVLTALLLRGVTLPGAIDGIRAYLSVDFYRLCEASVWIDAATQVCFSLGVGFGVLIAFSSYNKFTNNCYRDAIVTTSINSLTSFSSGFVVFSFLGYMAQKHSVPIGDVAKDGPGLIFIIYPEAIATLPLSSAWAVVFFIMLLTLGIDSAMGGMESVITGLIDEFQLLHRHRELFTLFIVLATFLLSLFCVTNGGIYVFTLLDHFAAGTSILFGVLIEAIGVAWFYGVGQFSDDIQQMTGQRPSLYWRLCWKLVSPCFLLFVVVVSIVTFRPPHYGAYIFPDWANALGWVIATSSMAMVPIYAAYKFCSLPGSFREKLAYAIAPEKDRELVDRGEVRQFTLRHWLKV
# [3] = target: T2, Nitric oxide synthase, inducible (Mus musculus, UniProt P29477); set-up: species or system Escherichia coli;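 note: inhibition of iNOS enzyme activity measured with L-arginine as substrate; in other assays of this panel Not Active means under 50% inhibition at 10 µM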
# T2 sequence (P29477 whole entry): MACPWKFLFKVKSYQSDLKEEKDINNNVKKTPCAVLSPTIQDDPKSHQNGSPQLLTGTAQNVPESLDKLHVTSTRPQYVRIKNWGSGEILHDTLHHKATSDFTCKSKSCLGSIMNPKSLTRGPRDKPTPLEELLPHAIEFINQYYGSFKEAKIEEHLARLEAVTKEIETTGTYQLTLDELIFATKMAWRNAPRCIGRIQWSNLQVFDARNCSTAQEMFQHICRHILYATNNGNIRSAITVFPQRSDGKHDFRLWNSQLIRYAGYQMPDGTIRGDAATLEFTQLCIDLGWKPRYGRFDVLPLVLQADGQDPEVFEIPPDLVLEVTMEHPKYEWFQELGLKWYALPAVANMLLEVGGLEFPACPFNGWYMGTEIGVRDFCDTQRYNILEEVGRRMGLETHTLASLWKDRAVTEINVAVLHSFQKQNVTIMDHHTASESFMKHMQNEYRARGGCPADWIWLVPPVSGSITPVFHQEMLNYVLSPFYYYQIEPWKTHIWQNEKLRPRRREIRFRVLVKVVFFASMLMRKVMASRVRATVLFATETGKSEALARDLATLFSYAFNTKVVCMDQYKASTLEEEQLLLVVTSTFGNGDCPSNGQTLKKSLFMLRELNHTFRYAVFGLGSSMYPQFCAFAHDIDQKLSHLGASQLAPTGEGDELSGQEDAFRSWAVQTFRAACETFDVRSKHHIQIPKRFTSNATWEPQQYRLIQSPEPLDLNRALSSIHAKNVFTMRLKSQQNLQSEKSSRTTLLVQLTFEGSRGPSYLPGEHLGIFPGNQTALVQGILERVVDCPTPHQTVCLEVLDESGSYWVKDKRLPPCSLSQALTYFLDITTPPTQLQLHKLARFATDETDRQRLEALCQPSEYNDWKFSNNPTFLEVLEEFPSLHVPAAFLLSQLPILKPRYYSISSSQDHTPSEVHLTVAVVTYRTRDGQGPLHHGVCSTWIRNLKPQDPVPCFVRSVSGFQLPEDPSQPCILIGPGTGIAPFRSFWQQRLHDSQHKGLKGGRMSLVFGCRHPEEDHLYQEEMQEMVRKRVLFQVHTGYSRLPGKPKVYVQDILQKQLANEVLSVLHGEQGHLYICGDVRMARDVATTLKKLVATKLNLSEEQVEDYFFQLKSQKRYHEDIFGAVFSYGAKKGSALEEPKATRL
# [4] = DRUGMATRIX: Calcium Channel Type L, Phenylalkylamine radioligand binding (ligand: [3H] (-)-Desmethoxyverapamil (D-888)); type: cell membranes, Rattus norvegicus, Wistar, Brain, Membrane; details: Not Active = under 50% inhibition at 10 µM
# [5] = target: Prostaglandin G/H synthase 1 (Homo sapiens, UniProt P23219); test: biochemical; type: tissue-based, Platelet; details: platelet;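 note: inhibition of COX-1 enzyme activity, with arachidonic acid supplied as substrate; in other assays of this panel Not Active means under 50% inhibition at 10 µM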
# Prostaglandin G/H synthase 1, sequence (P23219 whole entry): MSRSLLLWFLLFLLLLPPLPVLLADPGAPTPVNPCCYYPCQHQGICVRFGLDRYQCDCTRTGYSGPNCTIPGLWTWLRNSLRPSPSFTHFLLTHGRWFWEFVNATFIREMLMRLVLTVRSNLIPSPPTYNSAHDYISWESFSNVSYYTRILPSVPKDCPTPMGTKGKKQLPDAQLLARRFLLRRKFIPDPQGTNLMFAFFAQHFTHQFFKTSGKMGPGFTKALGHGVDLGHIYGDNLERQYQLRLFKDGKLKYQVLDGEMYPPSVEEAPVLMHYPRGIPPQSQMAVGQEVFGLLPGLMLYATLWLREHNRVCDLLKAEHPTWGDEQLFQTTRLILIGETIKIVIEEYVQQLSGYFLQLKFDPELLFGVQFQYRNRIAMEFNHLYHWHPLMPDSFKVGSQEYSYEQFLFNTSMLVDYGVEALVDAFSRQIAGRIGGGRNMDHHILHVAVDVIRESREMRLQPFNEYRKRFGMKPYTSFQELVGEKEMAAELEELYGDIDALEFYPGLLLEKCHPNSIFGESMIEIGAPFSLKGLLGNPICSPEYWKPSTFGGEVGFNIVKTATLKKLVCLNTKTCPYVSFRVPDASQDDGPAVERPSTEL
# [6] = target: T3, Neuropeptide Y receptor type 1 (Homo sapiens, UniProt P25929); type: cell membranes, Membrane; details: sk-n-mc; note: in other assays of this panel Not Active means under 50% inhibition at 10 µM
# T3 sequence (P25929 whole entry): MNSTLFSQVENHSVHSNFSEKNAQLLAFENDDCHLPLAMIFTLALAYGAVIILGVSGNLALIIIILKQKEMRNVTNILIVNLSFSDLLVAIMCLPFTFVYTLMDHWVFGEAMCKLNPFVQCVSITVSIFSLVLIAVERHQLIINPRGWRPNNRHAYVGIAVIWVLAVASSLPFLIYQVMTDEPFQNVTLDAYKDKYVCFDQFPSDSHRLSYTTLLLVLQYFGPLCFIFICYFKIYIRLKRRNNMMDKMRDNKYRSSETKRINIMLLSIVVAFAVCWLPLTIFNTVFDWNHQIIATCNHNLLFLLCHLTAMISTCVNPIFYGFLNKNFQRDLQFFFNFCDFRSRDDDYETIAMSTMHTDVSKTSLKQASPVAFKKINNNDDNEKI
# [7] = target: T4, Alpha-2A adrenergic receptor (Homo sapiens, UniProt P08913); type: cell membranes, Sf9, Membrane; details: sf9; note: in other assays of this panel Not Active means under 50% inhibition at 10 µM
# T4 sequence (P08913 whole entry): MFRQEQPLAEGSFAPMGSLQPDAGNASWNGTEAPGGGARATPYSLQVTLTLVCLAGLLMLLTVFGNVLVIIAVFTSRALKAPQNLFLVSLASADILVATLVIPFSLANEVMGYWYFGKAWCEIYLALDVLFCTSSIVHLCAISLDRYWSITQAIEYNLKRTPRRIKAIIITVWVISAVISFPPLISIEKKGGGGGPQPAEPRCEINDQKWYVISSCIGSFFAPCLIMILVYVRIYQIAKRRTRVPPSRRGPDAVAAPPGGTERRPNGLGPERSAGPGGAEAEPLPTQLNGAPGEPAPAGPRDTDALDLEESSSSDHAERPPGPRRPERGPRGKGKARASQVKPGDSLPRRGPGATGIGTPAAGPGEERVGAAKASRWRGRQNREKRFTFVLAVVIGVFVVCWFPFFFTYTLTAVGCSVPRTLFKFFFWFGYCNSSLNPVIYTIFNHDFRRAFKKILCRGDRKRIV
# [8] = target: Matrix metalloproteinase-9 (Homo sapiens, UniProt P14780); type: cell-based
# Matrix metalloproteinase-9, sequence (P14780 whole entry): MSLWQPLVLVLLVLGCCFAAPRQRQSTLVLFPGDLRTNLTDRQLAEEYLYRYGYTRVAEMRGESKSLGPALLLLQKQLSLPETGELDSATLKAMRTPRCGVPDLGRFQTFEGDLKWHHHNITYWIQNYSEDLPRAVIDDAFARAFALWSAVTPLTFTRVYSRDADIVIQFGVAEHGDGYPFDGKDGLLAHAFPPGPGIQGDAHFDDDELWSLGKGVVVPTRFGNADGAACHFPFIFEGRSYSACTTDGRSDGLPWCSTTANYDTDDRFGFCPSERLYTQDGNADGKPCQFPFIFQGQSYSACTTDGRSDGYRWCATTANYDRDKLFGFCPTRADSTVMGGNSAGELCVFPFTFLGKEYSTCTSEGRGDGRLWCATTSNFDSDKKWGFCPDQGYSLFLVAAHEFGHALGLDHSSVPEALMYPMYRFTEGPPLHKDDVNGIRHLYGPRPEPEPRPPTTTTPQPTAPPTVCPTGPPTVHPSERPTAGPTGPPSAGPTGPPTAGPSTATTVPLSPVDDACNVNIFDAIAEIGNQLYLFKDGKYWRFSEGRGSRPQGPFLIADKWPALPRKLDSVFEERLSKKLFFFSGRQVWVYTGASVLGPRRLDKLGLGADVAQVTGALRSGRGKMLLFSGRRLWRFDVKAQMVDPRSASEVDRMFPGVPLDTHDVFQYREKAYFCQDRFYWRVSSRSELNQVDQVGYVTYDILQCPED
sequence,measurement,setting,value
IVERMECTIN,IC50,[1],Not Active
same,Ki,[1],Not Active
same,IC50,[2]; read-out: IC50,4.46 µM
same,Ki,[2]; read-out: Ki,3.54 µM
same,IC50,[3],Not Active
same,Ki,[3],Not Active
same,IC50,[4],Not Active
same,Ki,[4],Not Active
same,IC50,[5],Not Active
same,Ki,[5],Not Active
same,IC50,[6],Not Active
same,Ki,[6],Not Active
same,IC50,[7]; read-out: IC50,5.84 µM
same,Ki,[7]; read-out: Ki,2.19 µM
same,IC50,[8],Not Active
same,Ki,[8],Not Active
